{"source": "patent US20180237745A1", "about": "“METHOD FOR CONTROLLING DIFFERENTIATION OF STEM CELLS” (GUANGZHOU INSTITUTES OF BIOMEDICINE AND HEALTH, CHINESE …, priority 2015, published 2018)", "molecules": {"B1": {"name": "Activin A (protein, UniProt P08476 311-426, looked up)", "Inhibin beta A chain": "GLECDGKVNICCKKQFFVSFKDIGWNDWIIAPSGYHANYCEGECPSHIAGTSGSSLSFHSTVINHYRMRGHSPFANLKSCCVPTKLRPMSMLYYDDGQNIIKKDIQNMIVEECGCS", "modifications": "Inhibin beta A chain", "notes": "growth factor (Peprotech) used to induce definitive endoderm differentiation of hESCs"}}, "key": {"human H1 ES cells [1]": {"test_system": "human H1 ES cells", "protocol": "Undifferentiated human H1 ES cells were maintained in monolayer culture on Matrigel (BD Biosciences, 354277) in mTeSR1 medium (Stemcell Technologies, 05850) at 37° C. with 5% CO2. Cells were manually passaged at 1:4 to 1:6 split ratios every 3 to 5 days. For hepatic differentiation, we established a serum-free protocol based on previously described protocols with minor modifications^8, 9. Briefly, H1 cells were cultured for 3 days in RPMI/B27 medium (Insulin minus, Gibco, A18956-01) supplemented with 100 ng/ml Activin A (Peprotech, A120-14E), followed by 4 days with 20 ng/ml BMP2 (Peprotech, 120-02) and 30 ng/ml FGF-4 (Peprotech, 100-31) in RPMI/B27 (complete with Insulin, Gibco, 17504-044) medium, then 6 days with 20 ng/ml HGF (Peprotech, 100-39) and KGF (Peprotech, 100-19) in RPMI/B27 (complete with Insulin), then 8 days with 20 ng/ml Oncostatin-M (R&D Systems, 295-OM/CF) in Hepatocyte Culture Media (Lonza, cc-3198) supplemented with SingleQuots (without EGF). Immunofluorescence staining.\nSingle cell qPCR was performed using a Fluidigm C1 and BioMark HD as described by the manufacturer. Briefly, a cell suspension of a concentration of 166˜250 K/mL was loaded into a 10-17 μm C1™ Single-Cell Auto Prep IFC chamber (Fluidigm, PN100-5479), and cell capture was performed on the Fluidigm C1™ System. Both the empty wells and doublet-occupied wells were excluded from further analysis. Upon capture, reverse transcription and cDNA pre-amplification were performed using the Ambion Single Cell-to-CT Kit (Life Technologies, PN 4458237) and C1™ Single-Cell Auto Prep Module 2 Kit (Fluidigm, PN100-5519). The pre-amplified products were diluted 10-fold prior to analysis with TaqMan® Gene Expression Master Mix (Life Technologies, 4369016) and inventoried TaqMan® Gene Expression assays (20×, Applied Biosystems) in 96.96 dynamic Arrays™ on a BioMark System (Fluidigm). Inventoried TaqMan primers were used for single-cell qPCR. Relative expression was calculated as described in Buganim et al., 2012^22 except that a Ct value of 25 was used for low expressed genes. Relational network plots (mdsquish) were implemented as part of glbase^21 and will be described in detail elsewhere. Briefly, the normalized Euclidean distance between all cells was measured for singular value decomposed principal components 2, 3, 4 and 5. A network was then constructed using a threshold of 0.92 for weak links (dotted lines) and 0.99 for strong links (solid lines) with a maximum of the 50 best scoring edges per node, the network was then laid out using graphviz ‘neato’ layout. Node sizes are 2^[relative expression].\nCulturing condition during differentiation is as follows. Nearly 50% confluent undifferentiated human H1 ES cells obtained from ATCC were passaged by Accutase 24 hr after seeding, cells were almost 90% confluent at 37° C. with 5% CO2. Then H1 cells were cultured for 3 days in RPMI/B27 medium (Insulin minus) supplemented with 100 ng/ml Activin A in the presence of 2 μM Repsox or not.\nTGFβ-signaling inhibitor RepSox was added with a final concentration of 2 μM at day 0 from the start of differentiation of hESCs.\nExpression of various markers of definite layer type cells, i.e., SOX1/PAX6 (ectoderm markers), GATA2/BMP4 (mesoderm markers), and SOX17/FOXA2 (endoderm markers) were tested during differentiation to evaluate the differentiated cells."}, "H1-derived cells": {"test_system": "H1-derived cells", "conditions": "day 3 cells induced by Activin A in the presence of RepSox, compared to DE cells", "text": "Scratch assay was used to determine the migration activity of H1-derived cells. Briefly, cells in a confluent monolayer were scratched with a needle to form a cell-free zone into which cells at the edges of the wound can migrate. The denuded area was imaged to measure the boundary of the wound at pre-migration. Images of cell movement were captured at regular intervals within a 24-48 hr period for data analysis."}, "human H1 ES cells [2]": {"test_system": "human H1 ES cells", "test": "Bulk real-time qRT-PCR of marker genes in Activin A induced hESCs", "assay_type": "cell-based", "protocol": "Immunofluorescence staining.\nTotal RNA was extracted using the Trizol reagent (MRC, TR1187) and 2 μg of total RNA was reverse-transcribed using the ReverTraAce Kit (TOYOBO, 34520B1). The product (cDNA) was properly diluted and used as PCR template. PCR reactions were performed with the SYBR®Premix Ex Taq™ Kit (TAKARA, RR420A) on the CFX96 Touch™ Real-Time PCR Detection System (Bio-Rad). GAPDH was used as the internal control. Three to four biological replicates were performed for each assay and data represents mean±SD.\nCulturing condition during differentiation is as follows."}, "TGFβ": {"test_system": "TGFβ", "test": "ELISA of TGFβ protein in Activin A stimulated H1 cell culture media", "assay_type": "cell-based, human", "conditions": "day 3 cells, Activin A (FIG. 4A)", "protocol": "The protein level of TGFβ in the Activin A stimulated H1 cell culture media was determined with an ELISA Kit (R&D Systems, DB100B) as described by the manufacturer."}}}
{"molecule": "Cc1cccc(-c2[nH]ncc2-c2ccc3ncccc3n2)n1", "note": "[RepSox]", "values": [{"measurement": "endoderm marker expression", "setting": "human H1 ES cells [1]; Example 1: 100 ng/ml Activin A, 2 μM RepSox, 3 days (FIG. 4B-E)", "result": "no endoderm marker is expressed"}, {"measurement": "ectodermal markers SOX1 and PAX6", "setting": "human H1 ES cells [1]; RepSox treated cells, day 3 (FIG. 4C)", "result": "slightly induced"}, {"measurement": "EMT and formation of DE", "setting": "human H1 ES cells [1]; day 3, Activin A treated hESCs, RepSox added, single cell-qPCR (FIG. 4C)", "result": "not only blocked the EMT but also the formation of DE"}, {"measurement": "expression of POU5F1 and NANOG", "setting": "human H1 ES cells [1]; day 3 Activin A cells treated with RepSox (FIG. 4C)", "result": "continued to express POU5F1 and NANOG"}, {"measurement": "expression of CDH1 and SOX2", "setting": "human H1 ES cells [1]; day 3 Activin A cells treated with RepSox, compared with hESCs (FIG. 4C)", "result": "maintained the expression of CDH1 and SOX2 at the same level as hESCs"}, {"measurement": "induction of SOX17 expression", "setting": "human H1 ES cells [1]; day 3 Activin A-treated cells (FIG. 4C)", "result": "blocked its induction completely"}, {"measurement": "migration ability of day 3 cells", "setting": "H1-derived cells", "result": "less motile"}, {"measurement": "expression of CDH1", "setting": "human H1 ES cells [2]; qRT-PCR (FIG. 4D)", "result": "maintaining the expression of CDH1"}, {"measurement": "expression of CDH2, SNAI1, SNAI2, ZEB1, KLF8 and VIM", "setting": "human H1 ES cells [2]; qRT-PCR (FIG. 4D)", "result": "blocked the expression"}, {"measurement": "expression of mesendoderm/endoderm markers GSC, EOMES, MIXL1, SOX17, FOXA2, GATA4, GATA6, HHEX and LGR5", "setting": "human H1 ES cells [2]; qRT-PCR (FIG. 4D)", "result": "blocked the expression of mesendoderm/endoderm markers"}, {"measurement": "other lineage markers PAX6, GATA2, BMP4 and GATA3", "setting": "human H1 ES cells [2]; qRT-PCR (FIG. 4D)", "result": "mildly up-regulated"}]}
{"molecule": "B1", "values": [{"measurement": "TGFβ protein in the culture media", "setting": "TGFβ", "result": 1.5, "unit": "ng/mL"}, {"measurement": "TGFB1 gene expression", "setting": "human H1 ES cells [2]; qRT-PCR, day 3 (FIG. 6)", "result": "robust activation"}]}
